# Measured values reported in ChEMBL document CHEMBL4819004, “Discovery of selective CDK9 degraders with enhancing antiproliferative activity through PROTAC conversion” (Eur J Med Chem, 2021).
# pIC50: −log10 of the molar value. The source made the active and inactive calls. No cut-off for these calls is given here.
# Experiments:
# CDK9/cyclin T1 = CDK9/cyclin T1 (Homo sapiens, UniProt P50750); experiment: Inhibition of CDK9/cyclin T (unknown origin) using YSPTSPSYSPTSPSYSPTSPKKK or histone H1 as substrate incubated for 2 hrs in presence of [gamma-33P]ATP by radioactive filter binding assay; assay type: protein-complex assay
# MOLM-13 = experiment: Antiproliferative activity against human MOLM-13 cells incubated for 72 hrs by MTT assay; assay type: functional, cell-based; conditions: MOLM-13, 72 h
# B16 = experiment: Antiproliferative activity against mouse B16 cells incubated for 72 hrs by MTT assay; assay type: functional, cell-based; conditions: B16, 72 h
# A549 = experiment: Antiproliferative activity against human A549 cells incubated for 72 hrs by MTT assay; assay type: functional, cell-based; conditions: A549, 72 h
# HepG2 = experiment: Antiproliferative activity against human HepG2 cells incubated for 72 hrs by MTT assay; assay type: functional, cell-based; conditions: HepG2, 72 h
# [1] = biological target: T1, Protein cereblon/Cyclin-dependent kinase 9 (Homo sapiens, UniProt P50750+Q96SW2); experiment: Protac activity at CRBN/CDK9 in human MV4-11 cells assessed as CDK9 degradation rate at 500 nM incubated for 6 hrs by Western blot assay relative to control; assay type: cell-based
# [2] = biological target: T1, Protein cereblon/Cyclin-dependent kinase 9; experiment: Protac activity at CRBN/CDK9 in human MOLM-13 cells assessed as CDK9 degradation rate at 500 nM incubated for 6 hrs by Western blot assay relative to control; assay type: cell-based
# [3] = biological target: T1, Protein cereblon/Cyclin-dependent kinase 9; experiment: Protac activity at CRBN/CDK9 in human MV4-11 cells assessed as induction of CDK9 degradation by measuring downregulation of CDK9 expression level at 250 nM by western blot analysis; assay type: cell-based; conditions: time 1-12 hrs, TDE = time-dependent effect
# MV4-11 [4] = experiment: Induction of apoptosis in human MV4-11 cells assessed as total apoptotic cells at 30 nM after 6 hrs by AnnexinV-FITC/propidium iodide staining based flow cytometry (reference value: 9.75 %); assay type: functional
# MV4-11 [5] = experiment: Induction of apoptosis in human MV4-11 cells assessed as total apoptotic cells at 100 nM after 6 hrs by AnnexinV-FITC/propidium iodide staining based flow cytometry (reference value: 9.75 %); assay type: functional
# MV4-11 [6] = experiment: Induction of apoptosis in human MV4-11 cells assessed as total apoptotic cells at 500 nM after 6 hrs by AnnexinV-FITC/propidium iodide staining based flow cytometry (reference value: 9.75 %); assay type: functional
# MV4-11 [7] = experiment: Induction of apoptosis in human MV4-11 cells assessed as viable cells at 1 nM after 6 hrs by AnnexinV-FITC/propidium iodide staining based flow cytometry (reference value: 90.1 %); assay type: functional; conditions: read-out: Activity
# MV4-11 [8] = experiment: Induction of apoptosis in human MV4-11 cells assessed as viable cells at 250 nM after 6 hrs by AnnexinV-FITC/propidium iodide staining based flow cytometry (reference value: 90.1 %); assay type: functional; conditions: read-out: Activity
# MV4-11 [9] = experiment: Induction of apoptosis in human MV4-11 cells assessed as viable cells at 1000 nM after 6 hrs by AnnexinV-FITC/propidium iodide staining based flow cytometry (reference value: 90.1 %); assay type: functional; conditions: read-out: Activity
# MV4-11 [10] = experiment: Induction of apoptosis in human MV4-11 cells assessed as early apoptotic cells at 1 nM after 6 hrs by AnnexinV-FITC/propidium iodide staining based flow cytometry (reference value: 5.36 %); assay type: functional
# MV4-11 [11] = experiment: Induction of apoptosis in human MV4-11 cells assessed as early apoptotic cells at 30 nM after 6 hrs by AnnexinV-FITC/propidium iodide staining based flow cytometry (reference value: 5.36 %); assay type: functional
# MV4-11 [12] = experiment: Induction of apoptosis in human MV4-11 cells assessed as early apoptotic cells at 500 nM after 6 hrs by AnnexinV-FITC/propidium iodide staining based flow cytometry (reference value: 5.36 %); assay type: functional
# MV4-11 [13] = experiment: Induction of apoptosis in human MV4-11 cells assessed as late apoptotic cells at 1 nM after 6 hrs by AnnexinV-FITC/propidium iodide staining based flow cytometry (reference value: 4.29%); assay type: functional
# MV4-11 [14] = experiment: Induction of apoptosis in human MV4-11 cells assessed as late apoptotic cells at 100 nM after 6 hrs by AnnexinV-FITC/propidium iodide staining based flow cytometry (reference value: 4.29%); assay type: functional
# MV4-11 [15] = experiment: Induction of apoptosis in human MV4-11 cells assessed as late apoptotic cells at 250 nM after 6 hrs by AnnexinV-FITC/propidium iodide staining based flow cytometry (reference value: 4.29%); assay type: functional
# MV4-11 [16] = experiment: Induction of apoptosis in human MV4-11 cells assessed as necrotic cells at 30 nM after 6 hrs by AnnexinV-FITC/propidium iodide staining based flow cytometry (reference value: 0.16 %); assay type: functional
# MV4-11 [17] = experiment: Induction of apoptosis in human MV4-11 cells assessed as necrotic cells at 100 nM after 6 hrs by AnnexinV-FITC/propidium iodide staining based flow cytometry (reference value: 0.16 %); assay type: functional
# MV4-11 [18] = experiment: Induction of apoptosis in human MV4-11 cells assessed as necrotic cells at 250 nM after 6 hrs by AnnexinV-FITC/propidium iodide staining based flow cytometry (reference value: 0.16 %); assay type: functional
# MV4-11 [19] = experiment: Induction of apoptosis in human MV4-11 cells assessed as necrotic cells at 500 nM after 6 hrs by AnnexinV-FITC/propidium iodide staining based flow cytometry (reference value: 0.16 %); assay type: functional
# MV4-11 [20] = experiment: Induction of apoptosis in human MV4-11 cells assessed as necrotic cells at 1000 nM after 6 hrs by AnnexinV-FITC/propidium iodide staining based flow cytometry (reference value: 0.16 %); assay type: functional
# [21] = Half life in BALB/c nude mouse xenografted with human MV4-11 cells at 5 mg/kg, iv by LC/MS/MS analysis; assay type: ADME, organism-based; conditions: in vivo
# [22] = biological target: T1, Protein cereblon/Cyclin-dependent kinase 9; experiment: Protac activity at CRBN/CDK9 in human MV4-11 cells assessed as induction of CDK9 degradation by measuring downregulation of CDK9 expression level at 250 nM measured after 1 hr by western blot analysis; assay type: cell-based
# [23] = biological target: T1, Protein cereblon/Cyclin-dependent kinase 9; experiment: Protac activity at CRBN/CDK9 in human MV4-11 cells assessed as induction of CDK9 degradation at 250 nM pretreated for 2 hrs with CDK9 inhibitor, […] followed by incubation with compound for 6 hrs by western blot analysis; assay type: cell-based
# [24] = biological target: T1, Protein cereblon/Cyclin-dependent kinase 9; experiment: Protac activity at CRBN/CDK9 in human MV4-11 cells assessed as induction of CDK9 degradation at 250 nM pretreated for 2 hrs with E3 ligase cereblon ligand, pomalidomide followed by incubation with compound for 6 hrs by western blot analysis; assay type: cell-based
# [25] = biological target: T1, Protein cereblon/Cyclin-dependent kinase 9; experiment: Protac activity at CRBN/CDK9 in human MV4-11 cells assessed as induction of CDK9 degradation at 250 nM pretreated for 2 hrs with proteasome inhibitor, MG132 followed by incubation with compound for 6 hrs by western blot analysis; assay type: cell-based
# [26] = biological target: Protein cereblon/Cyclin-dependent kinase 2 (Homo sapiens) (UniProt P24941+Q96SW2); experiment: PROTAC activity at CRBN/CDK2 in human MV4-11 cells assessed as induction of CDK2 degradation at 31.25 to 500 nM measured after 3 hrs by western blot analysis; assay type: cell-based; conditions: dose 31.25-500 nM
# [27] = biological target: T1, Protein cereblon/Cyclin-dependent kinase 9; experiment: PROTAC activity at CRBN/CDK9 in human MV4-11 cells assessed as reduction in RNA PolII CTD phosphorylation at Ser2 residue measured after 6 hrs by western blot analysis; assay type: cell-based; conditions: dose 31.25-8000 nM
smiles,measurement,setting,value
COc1cc(F)ccc1-c1ncnc(Nc2cccc(CS(C)(=O)=NC(=O)CCCCCCCC(=O)NCCNc3cccc4c3C(=O)N(C3CCC(=O)NC3=O)C4=O)c2)n1 (configuration not stated),pIC50,CDK9/cyclin T1,8.06
same,pIC50,MOLM-13,6.92
same,pIC50,B16,5.85
same,pIC50,A549,5.91
same,pIC50,HepG2,5.68
same,Activity,[1],100%
same,Activity,[2],100%
same,Activity,[3],Tde
same,Activity,MV4-11 [4],22.3%
same,Activity,MV4-11 [5],26.8%
same,Activity,MV4-11 [6],67.9%
same,viability at 0.001 µM,MV4-11 [7],79.1%
same,viability at 0.25 µM,MV4-11 [8],40.1%
same,viability at 1 µM,MV4-11 [9],28.2%
same,Activity,MV4-11 [10],6.13%
same,Activity,MV4-11 [11],7.46%
same,Activity,MV4-11 [12],54.2%
same,Activity,MV4-11 [13],14%
same,Activity,MV4-11 [14],15.3%
same,Activity,MV4-11 [15],14.3%
same,Activity,MV4-11 [16],0.28%
same,Activity,MV4-11 [17],0.47%
same,Activity,MV4-11 [18],0.47%
same,Activity,MV4-11 [19],0.72%
same,Activity,MV4-11 [20],0.4%
same,half-life,[21],1.3 h
same,Activity,[22],Active
same,Activity,[23],inactive
same,Activity,[24],inactive
same,Activity,[25],inactive
same,Activity,[26],inactive
same,Activity,[27],Dose-Dependent Effect
